{"source": "patent US20060063828A1", "about": "(priority 2004, published 2006)", "key": {"VCAM-1": {"system": "VCAM-1", "test": "In Vitro VCAM-1 Assay (ELISA of VCAM-1 on TNF-α stimulated endothelial cells)", "format": "cell-based", "settings": "Endothelial cell; primary human aortic (HAEC) or pulmonary (HPAEC) endothelial cells, TNF-α (1 ng/ml), approximately 16 hours", "experimental": "Cell Culture and compound dosing: Cultured primary human aortic (HAEC) or pulmonary (HPAEC) endothelial cells were obtained from Clonetics, Inc., and were used below passage 9. Cells were seeded in 96 well plates such that they would reach 90-95% confluency by the following day. On the following day the cells were stimulated with TNF-α (1 ng/ml) in the presence or absence of compounds dissolved in DMSO such that the final concentration of DMSO is 0.25% or less. To establish a dose curve for each compound, four concentrations in 2- to 5-fold increments were used. Cells were exposed to TNF-α and compounds for approximately 16 hours. The next day the cells were examined under microscope to score for visual signs of toxicity or cell stress.\nFollowing 16 hr exposure to TNF-α and compound the media was discarded and the cells were washed once with Hanks Balanced Salt Solution (HBSS)/Phosphate buffered saline (PBS) (1:1). Primary antibodies against VCAM-1 (0.25 μg/ml in HBSS/PBS+5% FBS) were added and incubated for 30-60 minutes at 37° C. Cells were washed with HBSS/PBS three times, and secondary antibody Horse Radish Peroxidase (HRP)-conjugated goat anti-mouse IgG (1:500 in HBSS/PBS+5% FBS) were added and incubated for 30 minutes at 37° C. Cells were washed with HBSS/PBS four time and TMB substrate were added and incubated at room temperature in the dark until there was adequate development of blue color. The length of time of incubation was typically 5-15 minutes. 2N sulfuric acid was added to stop the color development and the data was collected by reading the absorbance on a BioRad ELISA plate reader at OD 450 nm. The results are expressed as IC50 values (the concentration (micromolar) of compound required to inhibit 50% of the maximal response of the control sample stimulated by TNF-α only)."}}}
{"smiles": "C=C(C(=O)c1ccc(C(=O)O)cc1)c1ccc(OC)c(-c2cccs2)c1", "note": "[Example 1, 4-[2-(4-Methoxy-3-thien-2-yl-phenyl)-acryloyl]-benzoic acid]", "values": [{"measurement": "IC50", "setting": "VCAM-1", "value": "< 3", "unit": "µM"}, {"measurement": "melting point", "value": "163 to 164", "unit": "°C"}]}
{"smiles": "C=C(C(=O)c1ccc(C(=O)O)cc1)c1cc(-c2cccs2)c(OC)cc1OC", "note": "[Example 55, 4-[2-(2,4-Dimethoxy-5-thien-2-yl-phenyl)-acryloyl]-benzoic acid]", "values": [{"measurement": "IC50", "setting": "VCAM-1", "value": "< 3", "unit": "µM"}, {"measurement": "melting point", "value": "196 to 198", "unit": "°C"}]}
{"smiles": "C=C(C(=O)c1ccc(C(=O)NC(CO)(CO)CO)cc1)c1cc(-c2cccs2)ccc1OC", "note": "[Example 10, N-(2-Hydroxy-1,1-bis-hydroxymethyl-ethyl)-4-[2-(2-methoxy-5-thien-2-yl-phenyl)-acryloyl]-benzamide]", "values": [{"measurement": "IC50", "setting": "VCAM-1", "value": "< 1", "unit": "µM"}, {"measurement": "melting point", "value": "144 to 146", "unit": "°C"}]}
{"smiles": "C=C(C(=O)c1cc(-c2cc3ccccc3s2)c(OC)cc1OC)c1ccc(F)cc1", "note": "[Example 47, 1-(5-Benzo[b]thien-2-yl-2,4-dimethoxy-phenyl)-2-(4-fluoro-phenyl)-propenone]", "values": [{"measurement": "IC50", "setting": "VCAM-1", "value": "< 3", "unit": "µM"}, {"measurement": "melting point", "value": "150 to 152", "unit": "°C"}]}
{"smiles": "C=C(C(=O)c1ccc(Nc2cnccn2)cc1)c1cc(-c2cccs2)ccc1OC", "note": "[Example 25, 2-(2-Methoxy-5-thien-2-yl-phenyl)-1-[4-(pyrazin-2-ylamino)-phenyl]-propenone]", "values": [{"measurement": "IC50", "setting": "VCAM-1", "value": "< 1", "unit": "µM"}, {"measurement": "melting point", "value": "178 to 182", "unit": "°C"}]}
{"smiles": "C=C(C(=O)c1ccc(NC(=O)c2cccn2C)cc1)c1cc(-c2cccs2)ccc1OC", "note": "[Example 28, 1-Methyl-1H-pyrrole-2-carboxylic acid {4-[2-(2-methoxy-5-thien-2-yl-phenyl)-acryloyl]-phenyl}-amide]", "values": [{"measurement": "IC50", "setting": "VCAM-1", "value": "< 1", "unit": "µM"}, {"measurement": "melting point", "value": "165 to 168", "unit": "°C"}]}
{"smiles": "C=C(C(=O)c1c(C)cccc1C)c1ccc(C(=O)O)cc1-c1cccs1", "note": "[Example 33, 4-[1-(2,6-Dimethyl-benzoyl)-vinyl]-3-thien-2-yl-benzoic acid]", "values": [{"measurement": "IC50", "setting": "VCAM-1", "value": "< 3", "unit": "µM"}, {"measurement": "melting point", "value": "186.5 to 188", "unit": "°C"}]}
{"smiles": "C=C(C(=O)c1c(OC)cccc1OC)c1cc(-c2cccs2)ccc1OC(C)(C)C(=O)O", "note": "[Example 66, 2-{2-[1-(2,6-Dimethoxy-benzoyl)-vinyl]-4-thien-2-yl-phenoxy}-2-methyl-propionic acid]", "values": [{"measurement": "IC50", "setting": "VCAM-1", "value": "< 3", "unit": "µM"}, {"measurement": "melting point", "value": "72 to 84", "unit": "°C"}]}
{"smiles": "C=C(C(=O)c1ccc(Nc2ncccc2C(=O)OCC)cc1)c1cc(-c2cccs2)ccc1OC", "note": "[Example 23, 2-{4-[2-(2-Methoxy-5-thien-2-yl-phenyl)-acryloyl]-phenylamino}-nicotinic acid ethyl ester]", "values": [{"measurement": "IC50", "setting": "VCAM-1", "value": "< 3", "unit": "µM"}, {"measurement": "melting point", "value": "149 to 151", "unit": "°C"}]}
{"smiles": "C=C(C(=O)c1c(OC)ccc(-c2cccs2)c1OC)c1ccc(C(F)(F)F)cc1", "note": "[Example 40, 1-(2,6-Dimethoxy-3-thien-2-yl-phenyl)-2-(4-trifluoromethyl-phenyl)-propenone]", "values": [{"measurement": "IC50", "setting": "VCAM-1", "value": "< 1", "unit": "µM"}, {"measurement": "melting point", "value": "102 to 105", "unit": "°C"}]}
{"smiles": "C=C(C(=O)c1ccc(NC(=O)C(C)C)cc1)c1cc(-c2cccs2)ccc1OC", "note": "[Example 21, N-{4-[2-(2-Methoxy-5-thien-2-yl-phenyl)-acryloyl]-phenyl}-isobutyramide]", "values": [{"measurement": "IC50", "setting": "VCAM-1", "value": "< 1", "unit": "µM"}, {"measurement": "melting point", "value": "155 to 158", "unit": "°C"}]}
{"smiles": "C=C(C(=O)c1c(OC)cccc1OC)c1ccc(C(=O)O)cc1-c1cccs1", "note": "[Example 36, 4-[1-(2,6-Dimethoxy-benzoyl)-vinyl]-3-thien-2-yl-benzoic acid]", "values": [{"measurement": "IC50", "setting": "VCAM-1", "value": "< 3", "unit": "µM"}, {"measurement": "melting point", "value": "192 to 195", "unit": "°C"}]}
{"smiles": "C=C(C(=O)c1ccc(C(C)(C)C)cc1)c1cc(-c2cccs2)ccc1OC", "note": "[Example 57, 1-(4-tert-Butyl-phenyl)-2-(2-methoxy-5-thien-2-yl-phenyl)-propenone]", "values": [{"measurement": "IC50", "setting": "VCAM-1", "value": "< 3", "unit": "µM"}, {"measurement": "melting point", "value": "130 to 132", "unit": "°C"}]}
{"smiles": "C=C(C(=O)c1cc(OC)c(OC)c(-c2cccs2)c1)c1ccc(C(=O)O)cc1", "note": "[Example 16, 4-[1-(3,4-Dimethoxy-5-thien-2-yl-benzoyl)-vinyl]-benzoic acid]", "values": [{"measurement": "IC50", "setting": "VCAM-1", "value": "< 1", "unit": "µM"}, {"measurement": "melting point", "value": "159 to 160", "unit": "°C"}]}
{"smiles": "C=C(C(=O)c1c(OC)ccc(-c2cccs2)c1OC)c1c(Cl)cccc1Cl", "note": "[Example 42, 2-(2,6-Dichloro-phenyl)-1-(2,6-dimethoxy-3-thien-2-yl-phenyl)-propenone]", "values": [{"measurement": "IC50", "setting": "VCAM-1", "value": "< 1", "unit": "µM"}, {"measurement": "melting point", "value": "152 to 154", "unit": "°C"}]}
{"smiles": "C=C(C(=O)c1c(OC)ccc(-c2cc3ccccc3s2)c1OC)c1cccc(OC(C)(C)C(=O)O)c1", "note": "[Example 45, 2-{3-[1-(3-Benzo[b]thien-2-yl-2,6-dimethoxy-benzoyl)-vinyl]-phenoxy}-2-methyl-propionic acid]", "values": [{"measurement": "IC50", "setting": "VCAM-1", "value": "< 1", "unit": "µM"}, {"measurement": "melting point", "value": "135 to 137", "unit": "°C"}]}
{"smiles": "C=C(C(=O)c1ccc(C(=O)N2CCC(O)CC2)cc1)c1cc(-c2cccs2)ccc1OC", "note": "[Example 11, 1-[4-(4-Hydroxy-piperidine-1-carbonyl)-phenyl]-2-(2-methoxy-5-thien-2-yl-phenyl)-propenone]", "values": [{"measurement": "IC50", "setting": "VCAM-1", "value": "< 1", "unit": "µM"}, {"measurement": "melting point", "value": "197 to 199", "unit": "°C"}]}
{"smiles": "C=C(C(=O)c1ccc(Nc2ncccc2C(=O)O)cc1)c1cc(-c2cccs2)ccc1OC", "note": "[Example 24, 2-{4-[2-(2-Methoxy-5-thien-2-yl-phenyl)-acryloyl]-phenylamino}-nicotinic acid]", "values": [{"measurement": "IC50", "setting": "VCAM-1", "value": "< 1", "unit": "µM"}, {"measurement": "melting point", "value": "234 °C (dec.)"}]}
{"smiles": "C=C(C(=O)c1ccc(C(=O)O)cc1)c1cc(OC)c(OC)c(-c2cccs2)c1", "note": "[Example 49, 4-[2-(3,4-Dimethoxy-5-thien-2-yl-phenyl)-acryloyl]-benzoic acid]", "values": [{"measurement": "IC50", "setting": "VCAM-1", "value": "< 6", "unit": "µM"}, {"measurement": "melting point", "value": "156 to 157", "unit": "°C"}]}
{"smiles": "C=C(C(=O)c1ccc(F)cc1)c1cc(-c2cc3ccccc3s2)c(OC)cc1OC", "note": "[Example 51, 2-(5-Benzo[b]thien-2-yl-2,4-dimethoxy-phenyl)-1-(4-fluoro-phenyl)-propenone]", "values": [{"measurement": "IC50", "setting": "VCAM-1", "value": "< 3", "unit": "µM"}, {"measurement": "melting point", "value": "142 to 144", "unit": "°C"}]}
{"smiles": "C=C(C(=O)c1ccc(Nc2ncccn2)cc1)c1cc(-c2cccs2)ccc1OC", "note": "[Example 22, 2-(2-Methoxy-5-thien-2-yl-phenyl)-1-[4-(pyrimidin-2-ylamino)-phenyl]-propenone]", "values": [{"measurement": "IC50", "setting": "VCAM-1", "value": "< 1", "unit": "µM"}, {"measurement": "melting point", "value": "154 to 155", "unit": "°C"}]}
{"smiles": "C=C(C(=O)c1c(OC)ccc(-c2cccs2)c1OC)c1c(F)cccc1C(F)(F)F", "note": "[Example 64, 1-(2,6-Dimethoxy-3-thien-2-yl-phenyl)-2-(2-fluoro-6-trifluoromethyl-phenyl)-propenone]", "values": [{"measurement": "IC50", "setting": "VCAM-1", "value": "> 10", "unit": "µM"}, {"measurement": "melting point", "value": "76 to 78", "unit": "°C"}]}
{"smiles": "C=C(C(=O)c1ccc(C(=O)O)cc1)c1cc(-c2ccsc2)ccc1OC", "note": "[Example 62, 4-[2-(2-Methoxy-5-thien-3-yl-phenyl)-acryloyl]-benzoic acid]", "values": [{"measurement": "IC50", "setting": "VCAM-1", "value": "< 1", "unit": "µM"}, {"measurement": "melting point", "value": "192 to 194", "unit": "°C"}]}
{"smiles": "C=C(C(=O)c1ccc(NC(=O)c2ccno2)cc1)c1cc(-c2cccs2)ccc1OC", "note": "[Example 27, Isoxazole-5-carboxylic acid {4-[2-(2-methoxy-5-thien-2-yl-phenyl)-acryloyl]-phenyl}-amide]", "values": [{"measurement": "IC50", "setting": "VCAM-1", "value": "< 1", "unit": "µM"}, {"measurement": "melting point", "value": "132.5 to 133.5", "unit": "°C"}]}
{"smiles": "C=C(C(=O)c1c(OC)cccc1OC)c1ccccc1-c1cccs1", "note": "[Example 43, 1-(2,6-Dimethoxy-phenyl)-2-(2-thien-2-yl-phenyl)-propenone]", "values": [{"measurement": "IC50", "setting": "VCAM-1", "value": "< 3", "unit": "µM"}, {"measurement": "melting point", "value": "70 to 73", "unit": "°C"}]}
{"smiles": "C=C(C(=O)c1ccc([N+](=O)[O-])cc1)c1cc(-c2cccs2)ccc1OC", "note": "[Example 18, 2-(2-Methoxy-5-thien-2-yl-phenyl)-1-(4-nitro-phenyl)-propenone]", "values": [{"measurement": "IC50", "setting": "VCAM-1", "value": "< 3", "unit": "µM"}, {"measurement": "melting point", "value": "160 to 162", "unit": "°C"}]}
{"smiles": "C=C(C(=O)c1ccc(C(=O)O)cc1)c1cc(-c2cccnc2)ccc1OC", "note": "[Example 4, 4-[2-(2-Methoxy-5-pyridin-3-yl-phenyl)-acryloyl]-benzoic acid]", "values": [{"measurement": "IC50", "setting": "VCAM-1", "value": "< 1", "unit": "µM"}, {"measurement": "melting point", "value": "215 °C (dec.)"}]}
